The numbers were not newly measured in US8367683B2, “Composition and method for treatment of warts” (Medcara, L.L.C., priority 2005, dated 2013), which cites them from elsewhere.

This data set relates to warts. Particulars: even with patient compliance; applied several times a day over weeks to months.

SMILES strings stand for the structures.

As for `O=C(O)c1ccccc1O` [salicylic acid], the “share of users who experience success” value is reported as “less than half”.
